# Calls of active or inactive are those of the source. The calls are words filed in the database; no cut-off is given here.
# Legend:
# Pseudomonas aeruginosa = test: Antibacterial activity against Pseudomonas aeruginosa assessed as reduction in bacterial growth incubated for 24 hrs by broth microdilution method; type: functional
# Candida albicans = test: Antifungal activity against Candida albicans assessed as reduction in fungal growth incubated for 24 hrs by broth microdilution method; type: functional
# Staphylococcus aureus [1] = test: Antibacterial activity against methicillin-sensitive Staphylococcus aureus assessed as reduction in bacterial growth incubated for 24 hrs by broth microdilution method; type: functional
# Staphylococcus aureus [2] = test: Antibacterial activity against methicillin-resistance Staphylococcus aureus assessed as reduction in bacterial growth incubated for 24 hrs by broth microdilution method; type: functional
# Enterococcus = test: Antibacterial activity against vancomycin-resistant Enterococcus assessed as reduction in bacterial growth incubated for 24 hrs by broth microdilution method; type: functional
# Acinetobacter baumannii [3] = test: Antibacterial activity against multidrug-resistant Acinetobacter baumannii assessed as reduction in bacterial growth incubated for 24 hrs by broth microdilution method; type: functional
# Enterobacteriaceae = test: Antibacterial activity against Carbapenem-Resistant Enterobacteriaceae assessed as reduction in bacterial growth incubated for 24 hrs by broth microdilution method; type: functional
# [4] = Cytotoxicity against HDF cells assessed as cell viability at 500 ug/ml incubated for 24 hrs by MTS assay relative to control; type: cell-based; conditions: human, HDF cells (NHDF, human dermal fibroblasts); read-out: Activity
# NHDF = test: Cytotoxicity against HDF cells assessed as truncation and reduction in cytoskeleton at 500 ug/ml incubated for 24 hrs by Alexa Fluor […] phalloidin-FITC/Hoescht dye staining based fluorescence microscopic analysis; type: cell-based; conditions: human
# HaCaT = test: Cytotoxicity against human HaCaT cells assessed as truncation and reduction in cytoskeleton at 500 ug/ml incubated for 24 hrs by Alexa Fluor […] phalloidin-FITC/Hoescht dye staining based fluorescence microscopic analysis; type: cell-based
# [5] = Hemolytic activity against human erythrocytes assessed as hemoglobin release incubated for 1 hr; type: ADME, cell-based, Erythrocyte; conditions: read-out: HD50
# Enterococcus faecalis [6] = test: Antibacterial activity against vancomycin-resistant Enterococcus faecalis ATCC 29212 assessed as log10 reduction in bacterial viability at 2 to 4 times MIC incubated for 30 mins in MHB medium followed by reincubation on MH agar plate for 24 to 48 hrs by time kill kinetics analysis; type: functional
# Enterococcus faecalis [7] = test: Antibacterial activity against vancomycin-resistant Enterococcus faecalis 1010 assessed as log10 reduction in bacterial viability at 2 to 4 times MIC incubated for 30 mins in MHB medium followed by reincubation on MH agar plate for 24 to 48 hrs by time kill kinetics analysis; type: functional
# Enterococcus faecalis [8] = test: Antibacterial activity against vancomycin-resistant Enterococcus faecalis 1002 assessed as log10 reduction in bacterial viability at 2 to 4 times MIC incubated for 30 mins in MHB medium followed by reincubation on MH agar plate for 24 to 48 hrs by time kill kinetics analysis; type: functional
# Acinetobacter baumannii [9] = test: Antibacterial activity against Acinetobacter baumannii 1001 assessed as reduction in bacterial viability at 2 or 4 times MIC incubated up to 24 hrs in MHB medium followed by reincubation on MH agar plate for 24 to 48 hrs by time kill kinetics assay; type: functional, organism-based
# Escherichia coli [10] = test: Antibacterial activity against Escherichia coli 1004 assessed as reduction in bacterial viability at 2 or 4 times MIC incubated up to 24 hrs in MHB medium followed by reincubation on MH agar plate for 24 to 48 hrs by time kill kinetics assay; type: functional, organism-based
# Klebsiella pneumoniae = test: Antibacterial activity against Klebsiella pneumoniae 1008 assessed as reduction in bacterial viability at 2 or 4 times MIC incubated up to 24 hrs in MHB medium followed by reincubation on MH agar plate for 24 to 48 hrs by time kill kinetics assay; type: functional, organism-based
# Enterococcus faecalis [11] = test: Induction of pore formation in intact vancomycin-resistant Enterococcus faecalis ATCC 29212 cell membrane assessed as SG uptake at 2 times MIC by SG dye based fluorescence based assay; type: organism-based
# Enterococcus faecalis [12] = test: Induction of pore formation in intact vancomycin-resistant Enterococcus faecalis 1002 cell membrane assessed as SG uptake at 2 times MIC by SG dye based fluorescence based assay; type: organism-based
# Acinetobacter baumannii [13] = test: Induction of pore formation in intact Acinetobacter baumannii 1001 cell membrane assessed as SG uptake at 2 times MIC by SG dye based fluorescence based assay; type: organism-based
# Escherichia coli [14] = test: Induction of pore formation in intact Escherichia coli 1004 cell membrane assessed as SG uptake at 2 times MIC by SG dye based fluorescence based assay; type: organism-based
# Acinetobacter baumannii [15] = test: Antibacterial activity against Acinetobacter baumannii ATCC 19606 assessed as reduction in bacterial growth at sublethal concentrations measured after 20 serial passages by broth microdilution method; type: functional, organism-based; conditions: ATCC 19606 = CIP 70.34 = JCM 6841
# Enterococcus faecalis [16] = test: Resistance index, ratio of MIC for vancomycin-resistant Enterococcus faecalis 1010 measured after 18 serial passages by broth microdilution method to MIC for vancomycin-resistant Enterococcus faecalis 1010 incubated for 24 hrs by broth microdilution method; type: functional
# T-cell [17] = test: Immunogenicity in human PBL T cells assessed as increase in IL-2 production at 62.5 or 125 ug/ml incubated for 24 hrs by ELISA; type: ADME, cell-based
# T-cell [18] = test: Immunogenicity in human PBL T cells assessed as increase in IL-4 production at 62.5 or 125 ug/ml incubated for 24 hrs by ELISA; type: ADME, cell-based
# T-cell [19] = test: Immunogenicity in human PBL T cells assessed as increase in IL-5 production at 62.5 or 125 ug/ml incubated for 24 hrs by ELISA; type: ADME, cell-based
# T-cell [20] = test: Immunogenicity in human PBL T cells assessed as increase in IFN-gamma production at 62.5 or 125 ug/ml incubated for 24 hrs by ELISA; type: ADME, cell-based
# [21] = Stability of the compound in rabbit tear fluid measured after 2 hrs by UPLC-MS analysis; type: ADME, Oryctolagus cuniculus
# [22] = Stability of the compound in rabbit tear fluids assessed as parent compound remaining measured after 4 hrs by UPLC-MS analysis; type: ADME, Oryctolagus cuniculus; conditions: tear fluid, read-out: Stability
# Oryctolagus cuniculus [23] = test: Induction of reepithelialization in injured New Zealand white rabbit cornea assessed as wound healing at 0.3% administered topically for qid measured at day 1 post-injury by fluorescein sodium staining based microscopic imaging analysis (reference value: 89.9 +/- 2.9 %); type: organism-based; conditions: in vivo, topical_or_ocular
# Oryctolagus cuniculus [24] = test: Induction of reepithelialization in injured New Zealand white rabbit cornea assessed as wound healing administered topically for qid measured at day 2 post-injury by fluorescein sodium staining based microscopic imaging analysis (reference value: 76.6 +/- 4.5 %); type: organism-based; conditions: in vivo, topical_or_ocular
# Oryctolagus cuniculus [25] = test: Induction of reepithelialization in injured New Zealand white rabbit cornea assessed as wound healing administered topically for qid measured at day 3 post-injury by fluorescein sodium staining based microscopic imaging analysis (reference value: 63.9 +/- 5.3 %); type: organism-based; conditions: in vivo, topical_or_ocular
# Oryctolagus cuniculus [26] = test: Induction of reepithelialization in injured New Zealand white rabbit cornea assessed as wound healing administered topically for qid measured at day 4 post-injury by fluorescein sodium staining based microscopic imaging analysis (reference value: 48.4 +/- 7.6 %); type: organism-based; conditions: in vivo, topical_or_ocular
# Oryctolagus cuniculus [27] = test: Induction of reepithelialization in injured New Zealand white rabbit cornea assessed as wound healing administered topically for qid measured at day 5 post-injury by fluorescein sodium staining based microscopic imaging analysis (reference value: 39.8 +/- 6.2 %); type: organism-based; conditions: in vivo, topical_or_ocular
# Oryctolagus cuniculus [28] = test: Induction of reepithelialization in injured New Zealand white rabbit cornea assessed as wound healing administered topically for qid measured at day 6 post-injury by fluorescein sodium staining based microscopic imaging analysis (reference value: 24.1 +/- 8.5 %); type: organism-based; conditions: in vivo, topical_or_ocular
# Oryctolagus cuniculus [29] = test: Induction of reepithelialization in injured New Zealand white rabbit cornea assessed as wound healing administered topically for qid measured at day 7 post-injury by fluorescein sodium staining based microscopic imaging analysis (reference value: 8.6 %); type: organism-based; conditions: in vivo, topical_or_ocular
# Oryctolagus cuniculus [30] = test: Induction of reepithelialization in injured New Zealand white rabbit cornea assessed as wound healing administered topically for qid measured at day 8 post-injury by fluorescein sodium staining based microscopic imaging analysis (reference value: 3.8 %); type: organism-based; conditions: in vivo, topical_or_ocular
# Enterococcus faecalis [31] = test: Resistance index, ratio of MIC for vancomycin-resistant Enterococcus faecalis 1010 measured after 20 serial passages by broth microdilution method to MIC for vancomycin-resistant Enterococcus faecalis 1010 incubated for 24 hrs by broth microdilution method; type: functional
# Staphylococcus aureus [32] = test: In vivo antibacterial activity against Staphylococcus aureus ATCC 29213 infected in C57BL/6 mouse assessed as reduction in bacterial burden by measuring log10 CFU/cornea at 0.3% administered topically as two times on day 1, four times on day 2 and two times on day 3 measured at 48 hrs post-final dose by 10 fold serial dilution method (reference value: 6.5 +/- 0.7 log10CFU); type: functional
structure (smiles),measurement,setting,value
CC[C@H](C)[C@H](NC(=O)CN)C(=O)NCC(=O)N[C@@H](C)C(=O)N[C@H](C(=O)N[C@@H](CC(C)C)C(=O)NCCC[C@@H](CN)C(=O)N[C@H](C(=O)N[C@@H](CC(C)C)C(=O)N[C@H](C(=O)N[C@H](C(=O)NCC(=O)N[C@@H](CC(C)C)C(=O)N1CCC[C@H]1C(=O)N[C@@H](C)C(=O)N[C@@H](CC(C)C)C(=O)N[C@H](C(=O)N[C@@H](CO)C(=O)N[C@@H](Cc1c[nH]c2ccccc12)C(=O)N[C@H](C(=O)N[C@@H](CCCCN)C(=O)N[C@@H](CCCNC(=N)N)C(=O)NCCC[C@@H](CN)C(=O)N[C@@H](CCCNC(=N)N)C(=O)N[C@@H](CCC(N)=O)C(=O)N[C@@H](CCC(N)=O)C(N)=O)[C@@H](C)CC)[C@@H](C)CC)[C@@H](C)O)[C@@H](C)O)C(C)C)C(C)C,MIC,Pseudomonas aeruginosa,8 to 64 µg/mL
same,MIC50,Pseudomonas aeruginosa,32 µg/mL
same,MIC,Candida albicans,16 to 32 µg/mL
same,MIC50,Candida albicans,32 µg/mL
same,MIC,Staphylococcus aureus [1],16 to 64 µg/mL
same,MIC50,Staphylococcus aureus [1],32 µg/mL
same,MIC50,Staphylococcus aureus [2],32 µg/mL
same,MIC,Enterococcus,4 to 16 µg/mL
same,MIC50,Enterococcus,8 µg/mL
same,MIC,Acinetobacter baumannii [3],4 to 8 µg/mL
same,MIC50,Acinetobacter baumannii [3],6 µg/mL
same,MIC,Enterobacteriaceae,4 to 128 µg/mL
same,MIC50,Enterobacteriaceae,16 µg/mL
same,"viability at 24 h, 500 ug/ml",[4],90.7%
same,Activity,NHDF,Toxic
same,Activity,HaCaT,Toxic
same,HC50 at 1 h,[5],175 µg/mL
same,log(activity),Enterococcus faecalis [6],>5
same,log(activity),Enterococcus faecalis [7],>5
same,log(activity),Enterococcus faecalis [8],>5
same,Activity,Acinetobacter baumannii [9],Active
same,Activity,Escherichia coli [10],Active
same,Activity,Klebsiella pneumoniae,Active
same,Activity,Enterococcus faecalis [11],Active
same,Activity,Enterococcus faecalis [12],Active
same,Activity,Acinetobacter baumannii [13],Active
same,Activity,Escherichia coli [14],Active
same,Activity,Acinetobacter baumannii [15],Active
same,Ratio,Enterococcus faecalis [16],16
same,Activity,T-cell [17],Non-Toxic
same,Activity,T-cell [18],Non-Toxic
same,Activity,T-cell [19],Non-Toxic
same,Activity,T-cell [20],Non-Toxic
same,Stability,[21],Stable
same,remaining at 4 h,[22],87.9%
same,Activity,Oryctolagus cuniculus [23],90.9%
same,Activity,Oryctolagus cuniculus [24],75.4%
same,Activity,Oryctolagus cuniculus [25],63.6%
same,Activity,Oryctolagus cuniculus [26],50.1%
same,Activity,Oryctolagus cuniculus [27],42.9%
same,Activity,Oryctolagus cuniculus [28],30.2%
same,Activity,Oryctolagus cuniculus [29],12.6%
same,Activity,Oryctolagus cuniculus [30],5.2%
CC[C@H](C)[C@H](NC(=O)CN)C(=O)NCC(=O)N[C@@H](C)C(=O)N[C@H](C(=O)N[C@@H](CC(C)C)C(=O)NCCC[C@@H](CN)C(=O)N[C@H](C(=O)N[C@@H](CC(C)C)C(=O)N[C@H](C(=O)N[C@H](C(=O)NCC(=O)N[C@@H](CC(C)C)C(=O)N1CCC[C@H]1C(=O)N[C@@H](C)C(=O)N[C@@H](CC(C)C)C(=O)N[C@H](C(=O)N[C@@H](CO)C(=O)N[C@@H](Cc1c[nH]c2ccccc12)C(=O)N[C@H](C(=O)NCCC[C@@H](CN)C(=O)N[C@@H](CCCNC(=N)N)C(=O)N[C@@H](CCCCN)C(=O)N[C@@H](CCCNC(=N)N)C(=O)N[C@@H](CCC(N)=O)C(=O)N[C@@H](CCC(N)=O)C(N)=O)[C@@H](C)CC)[C@@H](C)CC)[C@@H](C)O)[C@@H](C)O)C(C)C)C(C)C,MIC,Pseudomonas aeruginosa,8 to 64 µg/mL
same,MIC50,Pseudomonas aeruginosa,32 µg/mL
same,MIC,Candida albicans,16 to 32 µg/mL
same,MIC50,Candida albicans,32 µg/mL
same,MIC,Staphylococcus aureus [1],16 to 128 µg/mL
same,MIC50,Staphylococcus aureus [1],64 µg/mL
same,MIC50,Staphylococcus aureus [2],64 µg/mL
same,MIC,Enterococcus,4 to 16 µg/mL
same,MIC50,Enterococcus,8 µg/mL
same,MIC,Acinetobacter baumannii [3],2 to 8 µg/mL
same,MIC50,Acinetobacter baumannii [3],4 µg/mL
same,MIC,Enterobacteriaceae,4 to 64 µg/mL
same,MIC50,Enterobacteriaceae,8 µg/mL
same,"viability at 24 h, 500 ug/ml",[4],91.9%
same,Activity,NHDF,Toxic
same,Activity,HaCaT,Toxic
same,HC50 at 1 h,[5],215 µg/mL
same,log(activity),Enterococcus faecalis [6],>5
same,log(activity),Enterococcus faecalis [7],>5
same,log(activity),Enterococcus faecalis [8],>5
same,Activity,Acinetobacter baumannii [9],Active
same,Activity,Escherichia coli [10],Active
same,Activity,Klebsiella pneumoniae,Active
same,Activity,Enterococcus faecalis [11],Active
same,Activity,Enterococcus faecalis [12],Active
same,Activity,Acinetobacter baumannii [13],Active
same,Activity,Escherichia coli [14],Active
same,Activity,Acinetobacter baumannii [15],Active
same,Ratio,Enterococcus faecalis [31],4
same,Activity,T-cell [17],Non-Toxic
same,Activity,T-cell [18],Non-Toxic
same,Activity,T-cell [19],Non-Toxic
same,Activity,T-cell [20],Non-Toxic
same,Stability,[21],Stable
same,remaining at 4 h,[22],90.3%
same,Activity,Oryctolagus cuniculus [23],83.4%
same,Activity,Oryctolagus cuniculus [24],60.3%
same,Activity,Oryctolagus cuniculus [25],44.9%
same,Activity,Oryctolagus cuniculus [26],33.1%
same,Activity,Oryctolagus cuniculus [27],21.7%
same,Activity,Oryctolagus cuniculus [28],14.7%
same,Activity,Oryctolagus cuniculus [29],4.6%
same,Activity,Oryctolagus cuniculus [30],2.9%
same,Activity,Staphylococcus aureus [32],3.9 log10CFU
